The record followed here is US11980188B2, “Spiro cyclohexanedione derivates as herbicides” (SYNGENTA PARTICIPATIONS AG, priority 2018, dated 2024).

What all share (assay): Glasshouse herbicide test, pre- and post-emergence, percentage damage
Holding throughout (assay type): in vivo

One assay deals with Avena fatua (AVEFA). As to conditions: 250 g/h, evaluated after 13 days, percentage damage on five point scale; for AVEFA POST: post-emergence; for AVEFA PRE: pre-emergence. In a few lines:
(§1)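 Pots of the weeds sprayed either 1 day after sowing (pre-emergence) or after 8 days' growth (post-emergence), at 250 g/h in acetone/water with 0.5% Tween 20. Grown in a glasshouse at 24/16° C. day/night with 14 h light and 65% humidity. Damage scored 13 days later on a 1–5 scale (5=80-100%, 1=0-19%).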

Assay [1] deals with Echinochloa crus-galli (ECHCG). As to conditions: 250 g/h, evaluated after 13 days, percentage damage on five point scale; for ECHCG POST: post-emergence; for ECHCG PRE: pre-emergence. In a few lines:
as §1

For assay [2], the system named is Alopecurus myosuroides (ALOMY). As to conditions: 250 g/h, evaluated after 13 days, percentage damage on five point scale; for ALOMY POST: post-emergence; for ALOMY PRE: pre-emergence. Summed up:
as §1

The subject of the next assay is Lolium perenne (LOLPE). As to conditions: 250 g/h, evaluated after 13 days, percentage damage on five point scale; for LOLPE POST: post-emergence; for LOLPE PRE: pre-emergence. In a few lines:
as §1

Another assay relates to Setaria faberi (SETFA). As to conditions: 250 g/h, evaluated after 13 days, percentage damage on five point scale; for SETFA POST: post-emergence; for SETFA PRE: pre-emergence. Summed up:
as §1

For `CC(=O)N1CCC2(CC1)CC(=O)C(c1c(C)cc(-c3ccc(F)cc3)cc1C)C(=O)C2` [Compound A12], in the assay with Avena fatua (AVEFA), the “AVEFA POST” value was 5 (5=80-100%) and the “AVEFA PRE” value was 4 (4=60-79%). Moreover, in assay [1], the “ECHCG POST” value is on record as 5 (5=80-100%) and the “ECHCG PRE” value is given as 5 (5=80-100%). Moreover, in assay [2], the “ALOMY POST” value is 5 (5=80-100%) and the “ALOMY PRE” value is 5 (5=80-100%). In the assay on Lolium perenne (LOLPE), the “LOLPE POST” value is on record as 5 (5=80-100%) and the “LOLPE PRE” value is reported as 5 (5=80-100%). In addition, in the assay with Setaria faberi (SETFA), the “SETFA POST” value is on record as 5 (5=80-100%) and the “SETFA PRE” value was 5 (5=80-100%).
As to `Cc1cc(-c2ccc(C#N)cn2)cc(C)c1C1C(=O)CC2(CCN(C(=O)c3ccccc3)CC2)CC1=O` [Compound A23], in the assay on Avena fatua (AVEFA), the “AVEFA POST” value was 5 (5=80-100%) and the “AVEFA PRE” value is 5 (5=80-100%). In assay [1], the “ECHCG POST” value was 5 (5=80-100%) and the “ECHCG PRE” value is recorded as 5 (5=80-100%). For the same molecule, in assay [2], the “ALOMY POST” value is 5 (5=80-100%) and the “ALOMY PRE” value is listed as 5 (5=80-100%). In the assay on Lolium perenne (LOLPE), the “LOLPE POST” value is reported as 5 (5=80-100%) and the “LOLPE PRE” value is listed as 5 (5=80-100%). In addition, in the assay with Setaria faberi (SETFA), the “SETFA POST” value is recorded as 5 (5=80-100%) and the “SETFA PRE” value is listed as 5 (5=80-100%).
With `CCS(=O)(=O)N1CCC2(CC1)CC(=O)C(c1c(C)cc(-c3ccc(F)cc3)cc1C)C(=O)C2` [Compound A53], in the assay on Avena fatua (AVEFA), the “AVEFA POST” value was 5 (5=80-100%) and the “AVEFA PRE” value was 4 (4=60-79%). For the same molecule, in assay [1], the “ECHCG POST” value was 3 (3=40-59%) and the “ECHCG PRE” value was 5 (5=80-100%). The “ALOMY PRE” value in assay [2] was 5 (5=80-100%). In the assay with Lolium perenne (LOLPE), the “LOLPE POST” value is 5 (5=80-100%) and the “LOLPE PRE” value is recorded as 5 (5=80-100%). Moreover, in the assay on Setaria faberi (SETFA), the “SETFA POST” value is recorded as 5 (5=80-100%) and the “SETFA PRE” value is listed as 5 (5=80-100%).
For `Cc1cc(-c2ccc(F)cc2)cc(C)c1C1C(=O)CC2(CCN(C(=O)C3CC3)CC2)CC1=O` [Compound A59], in the assay on Avena fatua (AVEFA), the “AVEFA POST” value is reported as 5 (5=80-100%) and the “AVEFA PRE” value is on record as 5 (5=80-100%). Moreover, in assay [1], the “ECHCG POST” value is on record as 5 (5=80-100%) and the “ECHCG PRE” value is on record as 5 (5=80-100%). The “ALOMY PRE” value in assay [2] is reported as 5 (5=80-100%). Moreover, in the assay on Lolium perenne (LOLPE), the “LOLPE POST” value is listed as 5 (5=80-100%) and the “LOLPE PRE” value is given as 5 (5=80-100%). In the assay on Setaria faberi (SETFA), the “SETFA POST” value is given as 5 (5=80-100%) and the “SETFA PRE” value was 5 (5=80-100%).
`Cc1cc(-c2ncc(F)cn2)cc(C)c1C1C(=O)CC2(CCN(C(=O)CC#N)CC2)CC1=O` [Compound A43]: in the assay with Avena fatua (AVEFA), the “AVEFA POST” value is listed as 5 (5=80-100%) and the “AVEFA PRE” value was 5 (5=80-100%). Also, in assay [1], the “ECHCG POST” value was 5 (5=80-100%) and the “ECHCG PRE” value is 5 (5=80-100%). In assay [2], the “ALOMY POST” value is on record as 5 (5=80-100%) and the “ALOMY PRE” value is 5 (5=80-100%). Further, in the assay on Lolium perenne (LOLPE), the “LOLPE POST” value is reported as 5 (5=80-100%) and the “LOLPE PRE” value was 5 (5=80-100%). Further, in the assay on Setaria faberi (SETFA), the “SETFA POST” value is 5 (5=80-100%) and the “SETFA PRE” value is reported as 5 (5=80-100%).
On to `CC(=O)N1CCC2(CC1)CC(=O)C(c1c(C)cc(-c3ccc(Cl)cc3)cc1C)C(=O)C2` [Compound A49], for which, in the assay on Avena fatua (AVEFA), the “AVEFA POST” value is listed as 5 (5=80-100%) and the “AVEFA PRE” value was 5 (5=80-100%). In assay [1], the “ECHCG POST” value is listed as 5 (5=80-100%) and the “ECHCG PRE” value was 5 (5=80-100%). For the same molecule, in assay [2], the “ALOMY POST” value is recorded as 5 (5=80-100%) and the “ALOMY PRE” value is 5 (5=80-100%). Further, in the assay with Lolium perenne (LOLPE), the “LOLPE POST” value was 5 (5=80-100%) and the “LOLPE PRE” value is 5 (5=80-100%). For the same molecule, in the assay with Setaria faberi (SETFA), the “SETFA POST” value was 5 (5=80-100%) and the “SETFA PRE” value is 5 (5=80-100%).
With `Cc1cc(-c2ccc(C#N)cn2)cc(C)c1C1C(=O)CC2(CCN(C(=O)C3CC3)CC2)CC1=O` [Compound A28], in the assay on Avena fatua (AVEFA), the “AVEFA POST” value is 5 (5=80-100%) and the “AVEFA PRE” value is on record as 5 (5=80-100%). In assay [1], the “ECHCG POST” value is given as 5 (5=80-100%) and the “ECHCG PRE” value is reported as 5 (5=80-100%). In addition, in assay [2], the “ALOMY POST” value is listed as 5 (5=80-100%) and the “ALOMY PRE” value was 5 (5=80-100%). Further, in the assay with Lolium perenne (LOLPE), the “LOLPE POST” value is 5 (5=80-100%) and the “LOLPE PRE” value was 5 (5=80-100%). In the assay on Setaria faberi (SETFA), the “SETFA POST” value is recorded as 5 (5=80-100%) and the “SETFA PRE” value was 5 (5=80-100%).
On to `CC(=O)N1CCC2(CC1)CC(=O)C(c1c(C)cc(-c3ncc(Cl)cn3)cc1C)C(=O)C2` [Compound A51], for which, in the assay with Avena fatua (AVEFA), the “AVEFA POST” value is 5 (5=80-100%) and the “AVEFA PRE” value is recorded as 5 (5=80-100%). In addition, in assay [1], the “ECHCG POST” value is listed as 5 (5=80-100%) and the “ECHCG PRE” value is on record as 5 (5=80-100%). In addition, in assay [2], the “ALOMY POST” value was 5 (5=80-100%) and the “ALOMY PRE” value is 5 (5=80-100%). For the same molecule, in the assay on Lolium perenne (LOLPE), the “LOLPE POST” value is 5 (5=80-100%) and the “LOLPE PRE” value is given as 5 (5=80-100%). In addition, in the assay with Setaria faberi (SETFA), the “SETFA POST” value is 5 (5=80-100%) and the “SETFA PRE” value is 5 (5=80-100%).
As for `Cc1cc(-c2ccc(C#N)cn2)cc(C)c1C1C(=O)CC2(CCN(C(=O)c3ccccn3)CC2)CC1=O` [Compound A24], in the assay with Avena fatua (AVEFA), the “AVEFA POST” value is reported as 5 (5=80-100%) and the “AVEFA PRE” value is given as 5 (5=80-100%). Moreover, in assay [1], the “ECHCG POST” value is recorded as 5 (5=80-100%) and the “ECHCG PRE” value was 5 (5=80-100%). Besides, in assay [2], the “ALOMY POST” value is on record as 5 (5=80-100%) and the “ALOMY PRE” value is on record as 5 (5=80-100%). For the same molecule, in the assay on Lolium perenne (LOLPE), the “LOLPE POST” value was 5 (5=80-100%) and the “LOLPE PRE” value is listed as 5 (5=80-100%). In the assay on Setaria faberi (SETFA), the “SETFA POST” value is given as 5 (5=80-100%) and the “SETFA PRE” value is on record as 5 (5=80-100%).
Turning to `Cc1cc(-c2ccc(F)cc2)cc(C)c1C1C(=O)CC2(CCN(C(=O)c3ccccc3)CC2)CC1=O` [Compound A54], in the assay with Avena fatua (AVEFA), the “AVEFA POST” value was 5 (5=80-100%) and the “AVEFA PRE” value is 5 (5=80-100%). In assay [1], the “ECHCG POST” value is on record as 5 (5=80-100%) and the “ECHCG PRE” value is on record as 5 (5=80-100%). Besides, the “ALOMY PRE” value in assay [2] is 5 (5=80-100%). For the same molecule, in the assay on Lolium perenne (LOLPE), the “LOLPE POST” value is recorded as 5 (5=80-100%) and the “LOLPE PRE” value is on record as 5 (5=80-100%). Moreover, in the assay on Setaria faberi (SETFA), the “SETFA POST” value is 5 (5=80-100%) and the “SETFA PRE” value is on record as 5 (5=80-100%).
As for `COc1cc(-c2ccc(F)cc2)cc(C)c1C1C(=O)CC2(CCN(C(=O)C(C)O)CC2)CC1=O` (centres unmarked) [Compound A75], in the assay on Avena fatua (AVEFA), the “AVEFA POST” value is given as 5 (5=80-100%) and the “AVEFA PRE” value is reported as 5 (5=80-100%). Moreover, in assay [1], the “ECHCG POST” value is 5 (5=80-100%) and the “ECHCG PRE” value was 5 (5=80-100%). Also, in assay [2], the “ALOMY POST” value was 5 (5=80-100%) and the “ALOMY PRE” value was 5 (5=80-100%). Further, in the assay on Lolium perenne (LOLPE), the “LOLPE POST” value is 5 (5=80-100%) and the “LOLPE PRE” value is given as 5 (5=80-100%). For the same molecule, in the assay with Setaria faberi (SETFA), the “SETFA POST” value is on record as 5 (5=80-100%) and the “SETFA PRE” value is 5 (5=80-100%).
In the case of `COc1cc(-c2ccc(F)cc2)cc(C)c1C1C(=O)CC2(CCN(C(=O)NC(=O)c3ccccn3)CC2)CC1=O` [Compound A73], in the assay on Avena fatua (AVEFA), the “AVEFA POST” value is reported as 5 (5=80-100%) and the “AVEFA PRE” value was 1 (1=0-19%). Further, in assay [1], the “ECHCG POST” value is given as 5 (5=80-100%) and the “ECHCG PRE” value was 4 (4=60-79%). Also, the “ALOMY PRE” value in assay [2] was 5 (5=80-100%). In addition, in the assay with Lolium perenne (LOLPE), the “LOLPE POST” value was 5 (5=80-100%) and the “LOLPE PRE” value was 1 (1=0-19%). Also, in the assay on Setaria faberi (SETFA), the “SETFA POST” value was 5 (5=80-100%) and the “SETFA PRE” value was 5 (5=80-100%).
